Values after ≈ are worked out from the molar mass of the structure shown.
Details: buffer; pH 7.4; 200.0 µM

SMILES	solubility kinetic
COc1ccc(CNC(=O)CCCSc2ccccc2)cc1	2.4 µg/mL (≈ 7.61 µM)
CC(C)(C)c1cc(CCC(=O)Nc2ccncc2)cc(C(C)(C)C)c1O	40.4 µg/mL (≈ 114 µM)
c1ccc(N2CCOCCOCCOCCOCCOCC2)cc1	> 50.9 µg/mL
C=CCc1c(C)nc(N2CCSCC2)[nH]c1=O	32 µg/mL (≈ 127 µM)
N#CCc1nc(-c2cc3ccccc3oc2=O)cs1	5.4 µg/mL (≈ 20.1 µM)
CSc1ccc(/C=C2\NC(=O)NC2=O)cc1	9.8 µg/mL (≈ 41.8 µM)
O=C1NC(=O)/C(=C\c2cn(Cc3ccccc3F)c3ccccc23)N1	0.8 µg/mL (≈ 2.39 µM)
COc1cc(SC)ccc1C(=O)Nc1nc(C)cc(C)n1	40.7 µg/mL (≈ 134 µM)
COC(=O)C1Cc2ccccc2CN1S(=O)(=O)c1ccc(F)cc1 (stereo unspecified)	35.4 µg/mL (≈ 101 µM)
COc1ccc(NC(=O)c2ccco2)cn1	> 32.7 µg/mL
COc1ccc(/C=C2\SC(=N)N(c3ccc(F)cc3)C2=O)cc1	< 0.4 µg/mL
COc1cccc(C(=O)Nc2nc3ccccc3s2)c1	1.6 µg/mL (≈ 5.63 µM)
CCN(CC)CCn1c(NC(=O)c2ccc(C)cc2)nc2ccccc21	25.9 µg/mL (≈ 73.9 µM)
Cc1cccc(N2CCN(C(=S)NC3CCCCC3)CC2)c1C	< 0.2 µg/mL
Cc1cccc(NC(=O)COC(=O)C2COc3ccccc3O2)c1C (stereo unspecified)	> 51.2 µg/mL
CCC(=O)c1cn(Cc2ccccc2)c2ccccc12	1 µg/mL (≈ 3.8 µM)
CCNc1ccc(C(=O)OCC(=O)N2CCCC2)cc1[N+](=O)[O-]	43.9 µg/mL (≈ 137 µM)
CCOc1c(C)cnc2c1c(=O)n(Cc1ccccc1F)c(=O)n2C	15.8 µg/mL (≈ 46 µM)
CC(C)S(=O)(=O)c1cnc(-c2ccccn2)nc1N	37.6 µg/mL (≈ 135 µM)
CCOC(=O)C(=O)C1=CN(Cc2ccccc2)C=C(C#N)C1	> 44.4 µg/mL
CC(OC(=O)c1cccc(Cl)c1)C(=O)NC1CCCCC1C (stereo unspecified)	8.7 µg/mL (≈ 26.9 µM)

SMILES	solubility kinetic
COC(=O)c1cc2occc2n1Cc1nc(-c2ccccc2F)oc1C	1.4 µg/mL (≈ 3.95 µM)
COc1cccc(NC(=O)COc2cccnc2[N+](=O)[O-])c1	5.8 µg/mL (≈ 19.1 µM)
CCN(CC)C(=O)CSc1nc(-c2ccccc2)cc(=O)[nH]1	> 47.6 µg/mL
CC(=O)Nc1ccc(Nc2cc(C)nc3ccccc23)cc1	40.2 µg/mL (≈ 138 µM)
CC1=C(C(=O)OC2CCCCC2)C(c2ccccc2)NC(=O)N1 (stereo unspecified)	11.3 µg/mL (≈ 35.9 µM)
COc1ccc(-c2csc(NC3CCCCC3)n2)c(OC)c1	10.3 µg/mL (≈ 32.3 µM)
CC1=NN(c2nc3ccccc3[nH]2)C(=O)/C1=C/N(C)C	> 40.4 µg/mL
CCOC(=O)c1csc(NC(=O)c2cccs2)n1	28.9 µg/mL (≈ 102 µM)
COc1cccc(NC(=O)CN(C)C(=O)c2c(C)noc2C)c1	> 47.6 µg/mL
Cc1ccccc1NS(=O)(=O)c1csc(C(N)=O)c1	> 44.5 µg/mL
O=[N+]([O-])c1ccccc1S(=O)(=O)N1CCSCC1	34.2 µg/mL (≈ 119 µM)
O=C(NCc1ccccn1)Nc1cc(Cl)ccc1Cl	11.9 µg/mL (≈ 40.2 µM)
CCOCCCNC(c1ccccc1)c1ccncc1 (stereo unspecified)	38 µg/mL (≈ 141 µM)
COc1ccccc1NC(=O)Nc1cccc(C)n1	0.4 µg/mL (≈ 1.55 µM)
COC(=O)Cn1ncc(N(C)Cc2ccccc2)c(Cl)c1=O	> 48.3 µg/mL
Cc1cc(O)cc(=O)n1CCc1ccccc1	> 34.4 µg/mL
Br.Cc1ccnc(Nc2nc(-c3sc(C)nc3C)cs2)c1	3.6 µg/mL
Nn1c(SCC(=O)NC2CCCc3ccccc32)nnc1C1CC1 (stereo unspecified)	> 51.5 µg/mL
Cc1cnc(NC(=O)CC2OC(=O)c3ccccc32)s1 (stereo unspecified)	6.5 µg/mL (≈ 22.5 µM)
COC(=O)/C(=C\C=C\c1ccccc1)NC(=O)c1ccccc1	6.3 µg/mL (≈ 20.5 µM)
CN(CCO)C(=O)c1ccc(-c2nn(C)c(=O)c3ccccc23)cc1	> 50.6 µg/mL

SMILES	solubility kinetic
Cc1cc(C(=O)Nc2cc(C(C)(C)C)on2)c(C)o1	3.8 µg/mL (≈ 14.5 µM)
O=C(NC1CCCCC1)N1CCN(c2ccc([N+](=O)[O-])cc2)CC1	12.7 µg/mL (≈ 38.2 µM)
Cc1nc(N2CCOCC2)c2c3c(sc2n1)CCC3	34.4 µg/mL (≈ 125 µM)
O=C(NCCNC1CCC(c2ccccc2)CC1)c1ccc(F)cc1 (stereo unspecified)	35.4 µg/mL (≈ 104 µM)
O=C(CSc1nc2ccccc2[nH]1)NCc1ccc(F)cc1	> 47.3 µg/mL
Cc1ccc(N(CC(=O)N2CCc3ccccc3C2)S(C)(=O)=O)cc1	> 53.8 µg/mL
N#CCN1C(=O)C(=O)N(Cc2cccc(C(F)(F)F)c2)C1=O	42.6 µg/mL (≈ 137 µM)
O=C(O)C1CCN(C(=O)c2cccc3ccccc23)CC1	> 42.5 µg/mL
CC(C)CC(=O)Nc1cc2c3c(c1)C(C)C(=O)N3CCC2 (stereo unspecified)	> 43 µg/mL
CC(=O)c1cccn1S(=O)(=O)c1ccccc1	36.9 µg/mL (≈ 148 µM)
Cc1cc(NC(=O)CSc2nnc(C)o2)no1	> 38.1 µg/mL
COCCNc1nc(SC)nc2sc3c(c12)CCN(C)C3	46.5 µg/mL (≈ 143 µM)
O=C(COC(=O)c1cccc(OC(F)F)c1)NC1CCCC1	28.2 µg/mL (≈ 90 µM)
N#C/C(=C\c1ccccc1O)C(=O)Nc1ccccn1	32.9 µg/mL (≈ 124 µM)
O=c1cc(-c2ccc([N+](=O)[O-])cc2)c2cc3c(cc2[nH]1)OCCO3	0.9 µg/mL (≈ 2.78 µM)
COc1ncnc(-c2ccccc2)c1-c1ccccc1	14.9 µg/mL (≈ 56.8 µM)
O=C(NCCN1CCOCC1)c1cc([N+](=O)[O-])cc([N+](=O)[O-])c1	> 48.6 µg/mL
CCOc1cc(C(=O)NC2CCCCCCC2)cc(OCC)c1OCC	2.3 µg/mL (≈ 6.33 µM)
CCOc1nc(Nc2ccccc2F)nc(OCC)n1	10.4 µg/mL (≈ 37.4 µM)

— PubChem BioAssay AID1996
